Results reported in paper PMC10873626, “Acceleration of infectious disease drug discovery and development using a humanized model of drug metabolism” (Proceedings of the National Academy of Sciences of the …, 2024).
Read-outs that look alike come from different tables or passages of the source.

Columns and labels:
[1] = in vivo; settings: female, C57BL/6J, mouse
[2] = in vivo; settings: female, 8HUM, mouse
[3] = system: M. tuberculosis H37Rv; test: Acute M. tuberculosis infection efficacy model in 8HUM (lung CFU); format: in vivo, Mycobacterium tuberculosis; settings: 8HUM, efavirenz co-administration
[4] = system: M. tuberculosis H37Rv; test: Acute M. tuberculosis infection efficacy model in WT mice (lung CFU); format: in vivo, Mycobacterium tuberculosis; settings: efavirenz co-administration
[5] = human, in vivo; cited from earlier work
[6] = system: CYP; settings: cited from earlier work
[7] = microsomes
[8] = system: CYP3A4; test: Hepatic CYP3A4 induction in 8HUM (Western blot); format: in vivo, mouse; settings: efavirenz 20 and 40 mg/kg QD
Procedure: Microsomal samples were adjusted to 1 mg/mL in LDS sample buffer (Life Technologies) for loading of 10 µg total protein into each well and electrophoresis through 10% acrylamide gels for 1 h at 150 V, followed by transfer onto nitrocellulose membranes. Primary antibodies used for immunoblotting were anti-CYP3A4 (458234, BD Biosciences) and anti-GRP78 loading control (ab21685, Abcam). Pooled HLM material was the same as used in microsomal incubations. Loading control is not provided for Fig. 1B, as the comparison is between human and murine samples.
Mouse hepatic microsomes were prepared by homogenization of freshly-isolated liver in ice-cold SET buffer (0.25 M sucrose, 5 mM EDTA, and 20 mM Tris-HCL, pH 7.4) to make a 10% (w/v) homogenate solution (9 ml SET buffer/1 g liver) using a Polytron PT-MR-2100 homogenizer. Liver homogenates were centrifuged at 2000 rpm (Sorvall RTH-250 rotor) for 10 minutes at 4 °C and the supernatant then centrifuged at 12000 rpm (Sorvall SS-34 rotor) for 20 minutes at 4 °C. The resulting supernatant was centrifuged at 29130 rpm (Sorvall TFT-45.6 rotor) for 90 minutes at 4 °C and the microsomal pellets were resuspended in ice-cold SET buffer for storage at –70 °C.
Primary hepatocytes were freshly prepared from 8HUM using a modified version of Charni-Natan and Goldstein’s STAR Protocol(1). Following termination by cervical dislocation and femoral vessel cut […]

[9] = system: M. tuberculosis; settings: cited from earlier work
[10] = mouse, in vivo
[11] = human, 30 min, 5 µM, pH 7.4
[12] = mouse, microsomes
[13] = mouse, hepatocytes
[14] = in vivo; settings: female, mouse, po
[15] = in vivo; settings: female, 8HUM, mouse, po
[16] = mouse, hepatocytes; remark: listed apart in the source
[17] = hepatocytes
[18] = mouse, microsomes; remark: listed apart in the source

COc1nc2ccc(Br)cc2cc1[C@@H](c1ccccc1)[C@@](O)(CCN(C)C)c1cccc2ccccc12 [Bedaquiline]
AUC(0-t) [1]: 2.93 µg·h/mL | AUC(0-t) [2]: 19.1 µg·h/mL | impact of efavirenz on efficacy of bedaquiline [3]: no impact | decrease in efficacy of bedaquiline with efavirenz [4]: 1.3 log CFU | terminal half-life [5]: 5.5 mo | CYP interaction: Substrate [6]: 3A4

O=C1Nc2ccc(Cl)cc2[C@@](C#CC2CC2)(C(F)(F)F)O1 [Efavirenz]
CLint, Human [7]: 0.5 mL/min/g liver | induction of hepatic CYP3A4 [8]: approximately threefold | CYP interaction: Inducer [6]: 3A4 | CYP interaction: Substrate [6]: 2B6

CNCC[C@@](O)(c1cccc2ccccc12)[C@H](c1ccccc1)c1cc2cc(Br)ccc2nc1OC [NDM-bedaquiline, N-desmethyl bedaquiline]
potency of metabolite relative to parent compound [9]: approximately fivefold less potent | impact of efavirenz on PK [10]: little impact

Cc1c(O)cccc1C(=O)N[C@@H](CSc1ccccc1)[C@H](O)CN1C[C@H]2CCCC[C@H]2C[C@H]1C(=O)NC(C)(C)C [Nelfinavir]
CLint, Human [7]: 50 mL/min/g liver | metabolites detected [11]: 18 | CLint, WT [12]: 50 mL/min/g liver | CYP interaction: Inhibitor [6]: 3A4

CO[C@H]1/C=C/O[C@@]2(C)Oc3c(C)c(O)c4c(c3C2=O)C2=NC3(CCN(CC(C)C)CC3)NC2=C(NC(=O)/C(C)=C\C=C\[C@H](C)[C@H](O)[C@@H](C)[C@@H](O)[C@@H](C)[C@H](OC(C)=O)[C@@H]1C)C4=O [Rifabutin]
CLint, 8HUM [13]: 0.7 mL/min/g liver | CLint, Human [7]: 1.1 mL/min/g liver | CL/F [14]: 1.49 L/h/kg | CL/F [15]: 0.242 L/h/kg | CLint, WT [16]: 0.5 mL/min/g liver | CLint, Human [17]: 1 mL/min/g liver | CYP interaction: Substrate [6]: 3A4 | CLint, CypC4KO [18]: 0.5 mL/min/g liver
